Structures can show the parent of a compound that is named as a salt. Where two headings read alike, the source gives them in different places.
How the values were obtained:
MCF-7 = experiment: Quantitative HIF1α MSD immunoassay, MCF-7; type: cell-based; settings: Homo sapiens, read-out: HIF1α EC50
Description: Cells were seeded into 96-well cell culture plates (150 μl culture volume) at approximately 60–70% confluency at least 12 h prior to the compound treatment. Half of the culture medium (75 μl/well) were removed and 75 μl/well of medium containing the desired concentrations of compounds were added into cells for 5 h. The cell medium was then removed and the cells were washed once with phosphate buffered saline (PBS), followed by the addition of lysis buffer (20 mM Tris pH 7.4, 450 mM NaCl, 1 mM EDTA, 1 mM EGTA, 0.5% Triton X-100, 1x complete protease inhibitor cocktail and 100 μM DFO). Plates were then left at 4°C with shaking. […] Plates were washed thrice with Tris Wash Buffer, added with 150 μl/well 2X Read Buffer (R92TC, Meso Scale Discovery) before being read with an MSD Sector S600 plate reader (Meso Scale Discovery). Signals generated were normalized to “lysis buffer-only” controls.
To quantify the cellular efficiency of PHD inhibition, we developed an electrochemiluminescence-based assay for the quantification of HIF1α levels using the Meso Scale Discovery (MSD, http://www.mesoscale.com) technology (HIF1α MSD assay), which is based on the capture and detection of HIF1α protein using two specific HIF1α antibodies. […]

FTO = FTO (Homo sapiens, UniProt Q9C0B1); experiment: FTO LC-MS assay
Description: (§1) Inhibition assays for PHD2 (AlphaScreen) [9], the KDMs (AlphaScreen) [17], BBOX [18] and FTO [19] were carried out as previously described. N-Terminally biotinylated 19-residue human HIF1α CODD peptide ([sequence]) used in the PHD2 inhibition assays was from GL Biochem (Shanghai). IC50 values were calculated using nonlinear regression with normalized dose-response fit using GraphPad Prism 5.

BBOX1 = biological target: T1, BBOX1 (Homo sapiens, UniProt O75936); experiment: BBOX fluoride-release / detection based fluorescence assay
T1 sequence (O75936 1-387): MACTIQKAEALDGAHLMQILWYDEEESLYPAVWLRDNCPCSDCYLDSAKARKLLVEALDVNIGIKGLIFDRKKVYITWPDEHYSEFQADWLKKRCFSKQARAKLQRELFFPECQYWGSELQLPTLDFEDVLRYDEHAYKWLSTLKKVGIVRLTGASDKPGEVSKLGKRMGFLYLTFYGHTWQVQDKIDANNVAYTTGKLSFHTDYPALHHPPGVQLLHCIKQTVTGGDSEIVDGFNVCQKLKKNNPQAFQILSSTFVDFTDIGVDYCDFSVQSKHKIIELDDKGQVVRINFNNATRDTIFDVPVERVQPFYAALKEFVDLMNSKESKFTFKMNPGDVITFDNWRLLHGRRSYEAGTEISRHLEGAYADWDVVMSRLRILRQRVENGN
Description: as §1

PHD2 = PHD2 (Homo sapiens, UniProt Q9GZT9); experiment: PHD2 antibody-based (AlphaScreen) in vitro hydroxylation assay
Description: as §1

JMJD3 (KDM6B) = JMJD3 (KDM6B) (Homo sapiens, UniProt O15054); experiment: KDM AlphaScreen assay, JMJD3
Description: (§2) Inhibition assays for PHD2 (AlphaScreen) [9], the KDMs (AlphaScreen) [17], BBOX [18] and FTO [19] were carried out as previously described. […] IC50 values were calculated using nonlinear regression with normalized dose-response fit using GraphPad Prism 5.

FBXL11 (KDM2A) = biological target: T2, FBXL11 (KDM2A) (Homo sapiens, UniProt Q9Y2K7); experiment: KDM AlphaScreen assay, FBXL11
T2 sequence (Q9Y2K7 1-1162): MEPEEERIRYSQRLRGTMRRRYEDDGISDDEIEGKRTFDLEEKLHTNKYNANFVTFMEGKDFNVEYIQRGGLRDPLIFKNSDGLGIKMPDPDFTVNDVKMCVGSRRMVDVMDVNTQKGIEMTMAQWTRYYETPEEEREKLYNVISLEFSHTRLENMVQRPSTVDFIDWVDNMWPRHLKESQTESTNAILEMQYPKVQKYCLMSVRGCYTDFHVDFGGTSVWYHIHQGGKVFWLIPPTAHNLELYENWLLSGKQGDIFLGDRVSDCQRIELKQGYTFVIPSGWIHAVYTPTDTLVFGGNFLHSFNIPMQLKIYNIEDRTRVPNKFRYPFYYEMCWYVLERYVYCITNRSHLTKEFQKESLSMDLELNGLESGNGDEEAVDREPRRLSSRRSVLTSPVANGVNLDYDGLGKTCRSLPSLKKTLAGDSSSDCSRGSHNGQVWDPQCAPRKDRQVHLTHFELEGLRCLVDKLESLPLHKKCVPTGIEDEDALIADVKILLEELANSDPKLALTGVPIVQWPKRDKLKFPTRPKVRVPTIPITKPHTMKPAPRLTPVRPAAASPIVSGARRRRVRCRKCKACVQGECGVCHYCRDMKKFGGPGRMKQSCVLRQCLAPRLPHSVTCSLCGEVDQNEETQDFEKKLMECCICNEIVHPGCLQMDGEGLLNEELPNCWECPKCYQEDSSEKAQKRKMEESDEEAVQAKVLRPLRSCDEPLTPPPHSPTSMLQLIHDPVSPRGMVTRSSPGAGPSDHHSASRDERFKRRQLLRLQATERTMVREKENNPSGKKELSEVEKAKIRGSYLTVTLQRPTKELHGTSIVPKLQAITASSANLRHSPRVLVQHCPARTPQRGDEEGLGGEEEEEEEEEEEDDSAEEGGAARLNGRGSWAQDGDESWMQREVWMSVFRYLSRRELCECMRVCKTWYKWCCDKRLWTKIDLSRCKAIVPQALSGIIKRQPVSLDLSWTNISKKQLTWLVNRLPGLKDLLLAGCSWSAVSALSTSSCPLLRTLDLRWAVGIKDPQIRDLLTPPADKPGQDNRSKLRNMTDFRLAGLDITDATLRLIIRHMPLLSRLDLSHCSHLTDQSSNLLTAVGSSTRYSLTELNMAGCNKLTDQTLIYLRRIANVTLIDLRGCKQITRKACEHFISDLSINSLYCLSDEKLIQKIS
Description: as §2

Chain of PHD2 (Q9GZT9 whole entry): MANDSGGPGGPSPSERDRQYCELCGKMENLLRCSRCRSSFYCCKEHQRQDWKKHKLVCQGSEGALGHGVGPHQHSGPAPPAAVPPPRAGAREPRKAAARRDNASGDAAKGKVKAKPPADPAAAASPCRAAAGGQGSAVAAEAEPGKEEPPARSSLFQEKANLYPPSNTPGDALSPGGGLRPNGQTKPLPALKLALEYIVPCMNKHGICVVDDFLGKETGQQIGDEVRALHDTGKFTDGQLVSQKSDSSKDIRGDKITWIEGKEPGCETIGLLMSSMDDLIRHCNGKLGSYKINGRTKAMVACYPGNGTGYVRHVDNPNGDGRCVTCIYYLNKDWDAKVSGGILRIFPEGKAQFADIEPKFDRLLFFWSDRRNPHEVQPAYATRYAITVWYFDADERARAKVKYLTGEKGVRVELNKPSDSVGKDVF
Chain of FTO (Q9C0B1 whole entry): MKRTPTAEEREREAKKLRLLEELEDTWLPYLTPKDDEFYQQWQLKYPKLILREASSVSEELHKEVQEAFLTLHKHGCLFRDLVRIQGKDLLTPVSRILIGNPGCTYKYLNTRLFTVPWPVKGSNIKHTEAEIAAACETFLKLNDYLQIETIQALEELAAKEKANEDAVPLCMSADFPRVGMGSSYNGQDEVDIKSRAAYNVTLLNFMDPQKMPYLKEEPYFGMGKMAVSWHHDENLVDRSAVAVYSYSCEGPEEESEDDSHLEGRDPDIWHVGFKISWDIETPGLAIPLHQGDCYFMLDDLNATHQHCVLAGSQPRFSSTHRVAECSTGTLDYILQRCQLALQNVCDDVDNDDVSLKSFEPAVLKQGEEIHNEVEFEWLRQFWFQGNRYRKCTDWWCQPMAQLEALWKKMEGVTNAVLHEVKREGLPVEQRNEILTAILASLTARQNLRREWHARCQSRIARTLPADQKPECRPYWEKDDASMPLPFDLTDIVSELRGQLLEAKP
Chain of JMJD3 (KDM6B) (O15054 whole entry): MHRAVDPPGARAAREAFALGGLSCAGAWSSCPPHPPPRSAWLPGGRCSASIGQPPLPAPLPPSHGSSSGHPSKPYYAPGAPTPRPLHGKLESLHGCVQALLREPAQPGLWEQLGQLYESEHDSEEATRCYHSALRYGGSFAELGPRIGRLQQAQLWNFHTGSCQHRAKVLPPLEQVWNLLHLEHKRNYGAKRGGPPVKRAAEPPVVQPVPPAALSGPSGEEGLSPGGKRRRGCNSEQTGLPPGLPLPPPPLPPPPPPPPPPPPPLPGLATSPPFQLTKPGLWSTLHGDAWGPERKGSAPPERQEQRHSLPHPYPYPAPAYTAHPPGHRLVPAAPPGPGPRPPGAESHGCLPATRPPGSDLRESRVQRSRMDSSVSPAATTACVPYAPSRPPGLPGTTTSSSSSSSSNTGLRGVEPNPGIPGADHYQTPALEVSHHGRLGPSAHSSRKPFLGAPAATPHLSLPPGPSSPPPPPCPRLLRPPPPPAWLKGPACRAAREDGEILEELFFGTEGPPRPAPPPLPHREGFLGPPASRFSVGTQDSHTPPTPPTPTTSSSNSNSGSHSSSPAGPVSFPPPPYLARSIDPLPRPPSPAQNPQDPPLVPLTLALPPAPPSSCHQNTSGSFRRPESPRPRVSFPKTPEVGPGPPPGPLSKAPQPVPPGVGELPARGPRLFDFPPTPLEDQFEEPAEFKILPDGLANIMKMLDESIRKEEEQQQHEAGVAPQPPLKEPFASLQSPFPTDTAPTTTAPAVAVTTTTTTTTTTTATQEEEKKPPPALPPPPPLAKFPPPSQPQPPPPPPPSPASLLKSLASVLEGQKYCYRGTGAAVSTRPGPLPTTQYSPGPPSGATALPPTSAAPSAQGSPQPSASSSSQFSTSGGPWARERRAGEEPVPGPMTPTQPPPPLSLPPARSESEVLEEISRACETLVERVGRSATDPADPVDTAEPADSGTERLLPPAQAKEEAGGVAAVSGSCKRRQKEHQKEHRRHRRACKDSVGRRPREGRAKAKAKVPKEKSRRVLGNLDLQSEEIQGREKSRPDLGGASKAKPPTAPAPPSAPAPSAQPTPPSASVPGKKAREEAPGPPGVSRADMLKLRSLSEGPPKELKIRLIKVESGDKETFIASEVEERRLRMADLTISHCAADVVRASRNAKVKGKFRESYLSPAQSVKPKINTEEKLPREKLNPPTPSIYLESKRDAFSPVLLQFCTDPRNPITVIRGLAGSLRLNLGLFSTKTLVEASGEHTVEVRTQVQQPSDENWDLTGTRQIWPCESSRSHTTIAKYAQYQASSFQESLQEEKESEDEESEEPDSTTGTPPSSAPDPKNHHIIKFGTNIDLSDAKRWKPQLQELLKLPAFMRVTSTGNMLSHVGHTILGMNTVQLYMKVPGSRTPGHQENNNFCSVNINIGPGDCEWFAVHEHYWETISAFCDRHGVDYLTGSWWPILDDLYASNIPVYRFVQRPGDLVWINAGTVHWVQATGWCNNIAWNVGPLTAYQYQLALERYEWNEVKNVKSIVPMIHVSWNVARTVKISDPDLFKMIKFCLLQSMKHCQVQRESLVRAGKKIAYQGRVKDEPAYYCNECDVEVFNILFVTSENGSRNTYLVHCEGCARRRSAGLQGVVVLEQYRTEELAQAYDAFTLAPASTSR

Row | SMILES | EC50 (MCF-7; MCF7, MCF-7, 5 h treatment, MSD assay) [µM] | IC50 (FTO) [µM] | IC50 (BBOX1) [µM] | selectivity for PHD2 over all other tested enzymes (PHD2; from IC50 values of the 2OG oxygenase panel (Table 1)) | EC50 (MCF-7; MCF7, 5 h) [µM] | IC50 (JMJD3 (KDM6B)) [µM] | IC50 (FBXL11 (KDM2A)) [µM] | IC50 (PHD2) [µM]
1 | O=C(O)CNC(=O)c1c(O)c2ccccc2n(Cc2ccccc2)c1=O [IOX2] | 114 | 11 | 9.5 | approximately 400 fold |  |  |  | 
2 | CC(C)(C)OC(=O)c1ccc(-n2[nH]cc(-n3ccnn3)c2=O)nc1 [IOX4, t-Butyl 6-(5-oxo-4-(1H-1,2,3-triazol-1-yl)-2,5-dihydro-1H-pyrazol-1-yl)nicotinate] |  | 49 | 73 |  | 11.7 | 1.4 | 20 | 0.0016
3 | O=C(O)c1ccc(-n2[nH]cc(-n3ccnn3)c2=O)nc1 [compound 1, 6-(5-oxo-4-(1H-1,2,3-triazol-1-yl)-2,5-dihydro-1H-pyrazol-1-yl)pyridine-3-carbocylic acid hydrochloride] |  | 37 | > 50 |  |  | > 20 | 20 | 0.0048

— PMC4492579, “Potent and Selective Triazole-Based Inhibitors of the Hypoxia-Inducible Factor Prolyl-Hydroxylases with Activity in the Murine Brain” (PLoS ONE, 2015)
